The results in this text go back to ChEMBL document CHEMBL5579801, “Novel orexin receptor agonists based on arene- or pyridine-fused 1,3-dihydro-2H-imidazole-2-imines” (Bioorg Med Chem Lett, 2024).

The test system of data set [1] is HEK293. Briefly: Cytotoxicity against human HEK293 cells upto 100 uM incubated for 3 days. It counts as toxicity, cell-based. The following applies: hek293, 72 h, time 3 day.
Data set [2] can be described thus: Ratio of AUC in mouse brain to plasma at 5 mg/kg,iv administration. The data set is classed as ADME, organism-based. The conditions noted are these: read-out: Ratio AUC.
Data set [3] in a line: Half life in mouse plasma at 5 mg/kg,iv administration. The data set is classed as ADME, organism-based.
Data set [4] is described as follows: Cmax in mouse brain at 5 mg/kg,iv administration. It counts as ADME, organism-based.
A short description of data set [5]: AUClast in mouse brain at 5 mg/kg,iv administration. It counts as ADME, organism-based. The conditions noted are these: in vivo.
Data set [6] addresses T1, Orexin receptor type 2 (Homo sapiens, UniProt O43614).
T1 sequence (O43614 whole entry): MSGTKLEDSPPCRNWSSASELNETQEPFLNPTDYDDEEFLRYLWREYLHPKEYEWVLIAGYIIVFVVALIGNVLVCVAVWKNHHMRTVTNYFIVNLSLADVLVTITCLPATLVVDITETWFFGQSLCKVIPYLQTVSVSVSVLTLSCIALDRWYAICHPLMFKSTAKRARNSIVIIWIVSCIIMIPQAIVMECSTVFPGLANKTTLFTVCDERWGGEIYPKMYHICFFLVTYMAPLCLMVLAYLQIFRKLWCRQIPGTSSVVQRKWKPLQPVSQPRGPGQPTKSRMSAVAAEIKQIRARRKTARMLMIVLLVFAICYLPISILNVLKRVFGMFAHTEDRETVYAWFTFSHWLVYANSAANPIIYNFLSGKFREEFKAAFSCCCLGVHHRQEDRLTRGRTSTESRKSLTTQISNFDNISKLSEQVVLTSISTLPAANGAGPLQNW
Briefly: Agonist activity at human OX2R expressed in human HEK293 cells co-transfected with human Galphaq assessed as accumulation of inositol phosphate by scintillation counter analysis.

Data set [7] is described as follows: AUClast in mouse plasma at 5 mg/kg,iv administration. It counts as ADME, organism-based.
Data set [8] in a line: Tmax in mouse plasma at 5 mg/kg,iv administration. The data set is classed as ADME, organism-based.
Data set [9] in a line: Ratio of Cmax in mouse brain to plasma at 5 mg/kg,iv administration. It counts as ADME, organism-based.
The nature of data set [10]: Half life in mouse brain at 5 mg/kg,iv administration. The data set is classed as ADME, organism-based.
A short description of data set [11]: Cmax in mouse plasma at 5 mg/kg,iv administration. It counts as ADME, organism-based.
Data set [12] can be described thus: Tmax in mouse brain at 5 mg/kg,iv administration. The data set is classed as ADME, organism-based.

Molecules are shown by their SMILES.

By half-life is commonly meant how long it takes for the measured level to halve. Higher therefore signals slow loss. Usually Cmax stands for the maximum level reached in the sampled fluid or tissue. In general, EC50 refers to the midpoint of the concentration-response curve. In general, AUC(0-t) refers to exposure summed from dosing to a finite time, without extrapolation to infinity. A lower AUC(0-t) goes with less exposure. What is called Tmax is the time at which the peak concentration occurs. Regarding `Cc1ccc(C[C@@H](C(=O)N2CC(C#N)C2)n2c(=N)n(C(C)c3ccc(C)cc3)c3ccccc32)cc1` (mixture of isomers), in data set [1], the Activity result is “Non-Toxic”. For the same compound, the values for the Kp in data set [2] and in [9] were 0.48 and 0.24, respectively. In addition, the half-life was 185 min in [3] and 234 min in data set [10]. Moreover, the figures for the maximum concentration (Cmax) in data set [4] and in data set [11] were 53.2 ng/g and 225 ng/mL, respectively. The same compound came in with an AUClast in data set [5] of 8586 ng·min/g. For the same compound, in data set [6], the half-maximal effective concentration (EC50) turned out to be 661 nM. The exposure AUC(0-t) in data set [7] is 295 ng·h/mL. Also, the time to peak (Tmax) in [8] and in [12] was 10 min throughout.
